In ChEMBL document CHEMBL3507680, “University of Dundee, Gates Library screen for HepG2 cell viability”:

Test: Human HepG2 cell viability assay in 384 well format
Type: toxicity, cell-based
Set-up: dose 125 nL, time 70.5 hour; cytotoxicity at 70.5 h: concentration not given beside the values
Details: HepG2 cells, read-out: Inhibition

O=C(O)C1CN(c2cccc(Cl)c2)CCO1 (stereo unspecified)
cytotoxicity at 70.5 h: -4.2%

Cc1cn[nH]c1C1COCCN1S(=O)(=O)c1cn[nH]c1 (stereo unspecified)
cytotoxicity at 70.5 h: -0.517%

COc1cccc(CN2CCOC(c3cnccn3)C2)c1F (stereo unspecified)
cytotoxicity at 70.5 h: -8.48%

Cc1noc(C)c1C(=O)N1CCCCC1c1cc(C)n2ccnc2n1 (stereo unspecified)
cytotoxicity at 70.5 h: -10.1%

CCCn1nccc1-c1cc(C2CCN(S(C)(=O)=O)CC2)nc(C)n1
cytotoxicity at 70.5 h: -6.18%

Cc1cc(C2CCCN(S(=O)(=O)c3cn[nH]c3)C2)ccn1 (stereo unspecified)
cytotoxicity at 70.5 h: -7.27%

COCC(=O)N1CCCC1c1cccc(Nc2ncc(C)s2)n1 (stereo unspecified)
cytotoxicity at 70.5 h: 0.0728%

CN1CCOC(C)(C(=O)N2CCSCC2)C1 (stereo unspecified)
cytotoxicity at 70.5 h: -4.76%

CNC(=O)C1CN(C)CCN(CCCOc2ccccc2F)C1 (stereo unspecified)
cytotoxicity at 70.5 h: -3.84%

O=C(CCN1CCc2ccccc21)N1C[C@@H](O)[C@H](N2CCCC2)C1
cytotoxicity at 70.5 h: -7.06%

CC(=O)N1CCc2nnc(C3CCCN3CC3CCCCC3)n2CC1 (stereo unspecified)
cytotoxicity at 70.5 h: -6.06%

O=C(NCCNC1CCCCC1)c1cccs1
cytotoxicity at 70.5 h: -6.1%

Cc1cc(C(=O)NCc2ccc(F)cc2)nc(C2CCCN2C)n1 (stereo unspecified)
cytotoxicity at 70.5 h: -2.73%

CN(C)c1cc(C2CCCN2C(=O)c2ccc(=O)n(C)c2)ccn1 (stereo unspecified)
cytotoxicity at 70.5 h: -7.99%

COc1ccc(-c2cnc(N(C)C)nc2C2CN(C(C)=O)CCO2)cc1 (stereo unspecified)
cytotoxicity at 70.5 h: -11.5%

Fc1ccc(-c2nccnc2C2CCCNC2)cc1 (stereo unspecified)
cytotoxicity at 70.5 h: -3.79%

Fc1cccc(-c2nccnc2C2CCCNC2)c1 (stereo unspecified)
cytotoxicity at 70.5 h: -11.7%

Cc1nccc(C2CCCCN2Cc2cccc(F)c2)n1 (stereo unspecified)
cytotoxicity at 70.5 h: -12.9%

CS(=O)(=O)N1CC(c2n[nH]c3ncccc23)C1
cytotoxicity at 70.5 h: -1.49%

CS(=O)(=O)c1cn[nH]c1C1CCCN(C(=O)CN2CCOCC2)C1 (stereo unspecified)
cytotoxicity at 70.5 h: -5.31%

CN(C)c1nccc(C2CCCN(C(=O)CO)C2)n1 (stereo unspecified)
cytotoxicity at 70.5 h: -7.31%

COc1ccc(C(=O)N2C[C@@H](c3ccccc3)[C@@H]3NCCCC[C@@H]32)cc1
cytotoxicity at 70.5 h: -8.54%

c1cc(N2CCOCC(Cc3ccc4[nH]ccc4c3)C2)ncn1 (stereo unspecified)
cytotoxicity at 70.5 h: -8.81%

Cc1cc(N2CCOCC(Cc3ccc4[nH]ccc4c3)C2)ncn1 (stereo unspecified)
cytotoxicity at 70.5 h: -9.7%

Cc1sc2c(C3CCCN(C)C3)nc(C)n2c1C (stereo unspecified)
cytotoxicity at 70.5 h: 24.3%

CC(=O)N1CC(c2ccnc(Nc3ccc(C)cn3)n2)C1
cytotoxicity at 70.5 h: -4.62%

Cc1cc(C2CCN(S(=O)(=O)c3cn(C)cn3)CC2)ccn1
cytotoxicity at 70.5 h: -9.79%

COc1cccc(-c2cnc(C3CCNCC3)cn2)c1
cytotoxicity at 70.5 h: -4.54%

Cn1nccc1C(=O)N1CCOC(Cc2ccc(Cl)cc2)C1 (stereo unspecified)
cytotoxicity at 70.5 h: 0.563%

Cc1cncc(C2CCN(C(=O)CCc3ccnn3C)CC2)n1
cytotoxicity at 70.5 h: 23.6%

Cc1[nH]c2ccc(C(=O)N3C[C@@H](O)[C@H](N4CCOCC4)C3)cc2c1C
cytotoxicity at 70.5 h: -1.3%

CCN(Cc1ccncc1)CC1(O)CCN(C(=O)c2cccc(C)c2)C1 (stereo unspecified)
cytotoxicity at 70.5 h: -4.75%

Nc1nccnc1C1CN(C(=O)c2ccnnc2)CCO1 (stereo unspecified)
cytotoxicity at 70.5 h: -6.55%

O=C(N[C@@H]1CCC[C@@H](N2CCCC2)[C@@H]1O)c1cnn2cccnc12
cytotoxicity at 70.5 h: -1.75%

O=C(N[C@@H]1CC[C@@H](N2CCOCC2)[C@@H]1O)c1cnn2cccnc12
cytotoxicity at 70.5 h: 21.8%

Cc1nc2ccccn2c1CC(=O)N[C@@H]1CC[C@@H](N2CCCC2)[C@@H]1O
cytotoxicity at 70.5 h: -5.16%

O=C(C1CCN(c2cccnn2)C1)N1CCOCC1 (stereo unspecified)
cytotoxicity at 70.5 h: 1.06%

CNC(=O)c1cn[nH]c1C1(C)CCCN(Cc2ccccc2OC)C1 (stereo unspecified)
cytotoxicity at 70.5 h: 3.23%

CCCc1ncc(CNC2(c3ccc(Cl)cc3)CCC2)cn1
cytotoxicity at 70.5 h: -4.55%

CC(C)c1ncc(CNC2(c3ccc(Cl)cc3)CC2)cn1
cytotoxicity at 70.5 h: -1.4%

COCCc1ncc(CNC2(c3ccc(Cl)cc3)CC2)cn1
cytotoxicity at 70.5 h: 0.0528%

c1ccc(-c2cc(CNCCN3CCCC3)c3nnnn3c2)cc1
cytotoxicity at 70.5 h: -3.47%

Cc1cc(C(=O)N2CCc3nc(C4CCCCN4)ncc3C2)cs1 (stereo unspecified)
cytotoxicity at 70.5 h: -7.25%

Fc1ccccc1OCCc1cc(C2CNCCO2)n[nH]1 (stereo unspecified)
cytotoxicity at 70.5 h: -5.54%

CC(C)OCCCN(Cc1ccncc1)Cc1cc(F)ccc1F
cytotoxicity at 70.5 h: -4.35%

Cc1nc(C2CCN(Cc3ncc[nH]3)CC2)no1
cytotoxicity at 70.5 h: 19.7%
